In patent publication US10017554B2, “Neuropeptide Y-derived peptides” (University of Copenhagen, priority 2013, dated 2018):

Tested on: hippocampal neurons
Test: Neurite outgrowth in cultures of rat hippocampal neurons, embryonic day 19, 24 h
Assay type: cell-based
Conditions: for Neuritogenic effect 3 μM NPY fragment (% of control): 3 μM peptide; for neurite outgrowth / neuritogenic effect (in words): E19 prenatal rat hippocampal cultures
Protocol: When pharmacological inhibitors or antagonist are applied these are added to cultures 10 min prior to peptide addition. When soluble immunoglobulin modules are used, these are preincubated with peptide solution for 10 min before addition of the mix to the cultures. To knock down NCAM expression, the neurons were transfected with a p-GFP—V-RS vector that encodes short-hairpin RNA targeting NCAM (OriGene, Rockville, Md., USA) using a nucleofector device and a Rat Neuron Nucleofector kit (Amaxa, Gaithersburg, Md., USA). NCAM knock-out mice (C57BI/6JZtm) were a kind gift from prof. Herbert Hildebrandt (Hannover Medical School) and were created as previous described (Cremer et al., 1994). The neurons were fixed, immunostained, and micrographs were recorded and evaluated as previously described (Rønn et al., 2000; Nielsen et al., 2009). Cf. FIGS. 3-9
Neurite outgrowth in cultures of hippocampal neurons from wistar rats, embryonic stage day 19, incubated for 24 hours (37° C., 5% CO2) in supplemented Neurobasal medium with NPY fragments added; effect compared to un-stimulated controls (set to 100%). Values are mean normalized to un-stimulated controls±standard error of mean (SEM). *P<0.05, […], […], Student's t-test versus un-stimulated control.

[1] = un-stimulated controls set to 100%, mean ± SEM

| Sequence | Neuritogenic effect 1 μM NPY fragment (% of control) (1 μM peptide, un-stimulated controls set to 100%, mean ± SEM) | Neuritogenic effect 3 μM NPY fragment (% of control) [1] | neurite outgrowth / neuritogenic effect (in words) |
| --- | --- | --- | --- |
| PAEDMARYYSALRHYINLITRQR (listed as Homo sapiens) [NPY13-35] | 164.2 ± 7.2 % of control | 275.8 ± 31.2 % of control | – |
| ALRHYINLITRQRA (listed as Homo sapiens) [NPY23-36 ala36] | – | 91.7 (n = 1) % of control | – |
| SALRHYINLITRQR (listed as Homo sapiens) [NPY22-35] | – | – | does not |
| RQRTILNIYHRLASYYRAMDEAPADEGPNDPKS (listed as Homo sapiens) [NPY3-35 reversed sequence, reference compound] | – | – | did not induce the same neuritogenic effects |
| YSALRHYINLITRQR (listed as Homo sapiens) [NPY21-35] | – | 266.4 ± 26.6 % of control | induce neurite outgrowth |
